Tests used:
[1] = Intrinsic clearance in human liver microsomes; assay type: ADME, Microsome; settings: read-out: CLH
[2] = Intrinsic clearance in rat liver microsomes; assay type: ADME, Microsome; settings: read-out: CLH
[3] = Intrinsic clearance in human cytosol after 45 mins by LC/MS analysis; assay type: ADME
[4] = Intrinsic clearance in rat cytosol after 45 mins by LC/MS analysis; assay type: ADME
[5] = molecular target: T1, Toll-like receptor 7 (Homo sapiens) (UniProt Q9NYK1); assay: Agonist activity at human TLR7 expressed in human PBMCs assessed as reduction in HCV replicon level after 48 hrs by Bright Glo luciferase reporter gene assay; assay type: functional
T1 sequence (whole entry): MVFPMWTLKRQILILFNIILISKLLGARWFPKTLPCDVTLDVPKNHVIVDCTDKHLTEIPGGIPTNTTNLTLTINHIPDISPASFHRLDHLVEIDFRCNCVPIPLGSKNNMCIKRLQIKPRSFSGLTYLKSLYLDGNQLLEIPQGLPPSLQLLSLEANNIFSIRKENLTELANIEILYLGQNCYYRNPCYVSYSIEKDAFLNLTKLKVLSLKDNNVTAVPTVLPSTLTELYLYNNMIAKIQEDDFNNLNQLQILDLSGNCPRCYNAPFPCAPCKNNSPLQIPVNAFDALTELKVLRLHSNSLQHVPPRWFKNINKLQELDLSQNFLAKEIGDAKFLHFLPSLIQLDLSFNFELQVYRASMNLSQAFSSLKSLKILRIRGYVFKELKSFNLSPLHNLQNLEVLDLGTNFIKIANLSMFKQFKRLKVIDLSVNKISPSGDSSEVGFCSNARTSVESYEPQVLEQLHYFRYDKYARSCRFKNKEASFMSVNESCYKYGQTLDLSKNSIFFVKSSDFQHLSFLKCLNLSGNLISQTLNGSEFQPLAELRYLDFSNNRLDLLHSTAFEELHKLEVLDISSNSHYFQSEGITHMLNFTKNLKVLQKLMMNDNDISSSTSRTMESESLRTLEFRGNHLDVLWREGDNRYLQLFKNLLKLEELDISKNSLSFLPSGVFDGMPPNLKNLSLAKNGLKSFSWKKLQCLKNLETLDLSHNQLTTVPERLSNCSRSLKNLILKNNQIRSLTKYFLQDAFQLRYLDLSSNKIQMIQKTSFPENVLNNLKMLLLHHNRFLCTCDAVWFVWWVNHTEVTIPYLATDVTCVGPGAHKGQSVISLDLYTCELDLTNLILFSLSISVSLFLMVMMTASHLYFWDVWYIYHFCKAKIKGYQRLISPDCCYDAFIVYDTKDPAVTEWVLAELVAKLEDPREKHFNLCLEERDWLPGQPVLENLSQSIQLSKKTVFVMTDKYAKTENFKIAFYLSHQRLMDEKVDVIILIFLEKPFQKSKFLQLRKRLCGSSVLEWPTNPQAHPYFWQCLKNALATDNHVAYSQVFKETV

SMILES	microsomal CLint [1] [µL/min/mg]	microsomal CLint [2] [µL/min/mg]	microsomal CLint [3] [µL/min/mg]	microsomal CLint [4] [µL/min/mg]	Activity [5] [nM]
Cc1nc(Cn2c(=O)[nH]c3c(N)nc(C(F)(F)F)cc32)co1	< 8	< 10	< 1	< 1	
Nc1ccc(Cn2c(=O)[nH]c3c(N)nc(C(F)(F)F)cc32)cn1					43
Nc1nc(C(F)(F)F)cc2c1[nH]c(=O)n2Cc1ccc(N2CCOCC2)nc1					32
Cc1cc(Cn2c(=O)[nH]c3c(N)nc(C(F)(F)F)cc32)no1	< 8	< 9	< 1	< 1	
Nc1nc(C(F)(F)F)cc2c1[nH]c(=O)n2Cc1ccc(NCC2CC2)nc1					122
Nc1nc(C(F)(F)F)cc2c1[nH]c(=O)n2Cc1ccc(C(F)(F)F)nc1					75
COc1ccc(Cn2c(=O)[nH]c3c(N)nc(C(F)(F)F)cc32)cn1					74
CCc1coc(-c2cc3c([nH]c(=O)n3Cc3ccc(C)nc3)c(N)n2)n1					116
Cc1nc(Cn2c(=O)[nH]c3c(N)nc(C(F)(F)F)cc32)cs1	< 7	< 10	< 1	< 1	

Reference: ChEMBL document CHEMBL2021836, “Medicinal chemistry approaches to avoid aldehyde oxidase metabolism” (Bioorg Med Chem Lett, 2012)
